Source: patent US20180142211A1, “METHODS OF MESENCHYMAL STEM CELL MOBILIZATION AND EXPANSION” (Biokine Therapeutics Ltd, priority 2015, published 2018)
pKd: −log10 of the molar value. Entries after “also recorded” stand apart in the source; their conditions may differ.

Legend:
CD34 (+) cells = settings: MM patients, combined with G-CSF, single administration; cited from earlier work
HSC (CD34+ cells) = test: Phase I study: mobilization of HSC (CD34+ cells); format: in vivo, human
Text: (§1) Mean CD34+ count at baseline was 5.81/μL.

CXCR4 [1] = molecular target: T1, CXCR4 (Homo sapiens, UniProt P61073); test: Phase I study: receptor occupancy and pharmacodynamic effect; format: in vivo; set-up: endogenous in cells; host or cells: peripheral blood cells (CD34+, lymphocyte, mononuclear populations) of healthy volunteers; settings: post dosing
Text: as §1
Target sequence in this assay (P61073 whole entry): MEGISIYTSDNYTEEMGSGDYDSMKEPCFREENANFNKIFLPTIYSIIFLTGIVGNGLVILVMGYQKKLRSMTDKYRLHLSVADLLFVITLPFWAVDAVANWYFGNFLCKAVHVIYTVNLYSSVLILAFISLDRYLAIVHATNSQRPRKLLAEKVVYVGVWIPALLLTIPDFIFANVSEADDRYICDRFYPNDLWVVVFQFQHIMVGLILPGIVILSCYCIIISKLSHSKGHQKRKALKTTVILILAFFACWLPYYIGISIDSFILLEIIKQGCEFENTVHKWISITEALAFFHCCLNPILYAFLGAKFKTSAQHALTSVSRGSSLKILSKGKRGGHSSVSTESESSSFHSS

white blood cells (WBC) = test: Phase I study: WBC mobilization to peripheral blood; format: in vivo, human; settings: 4 hours post dose, baseline 6.31
Text: as §1

[2] = test system: long term repopulating cells; settings: mice, single injection; cited from earlier work
[3] = human, in vivo
Experimental: To test the effect of BL-8040 (SEQ ID NO: 1) on mesenchymal stem cell mobilization a two-part study was performed. The first part of the study was randomized, double-blind, placebo-controlled dose escalation study. In each cohort, six volunteers were administrated twice (altogether) on day one and two with BL-8040 (First cohort 0.5 mg/kg, Second cohort 0.75 mg/kg and Third 1.0 mg/kg) and 2 were administrated with placebo. […] BL-8040's safety, tolerability and pharmacokinetic profile were also evaluated on this part.

[4] = test system: Mesenchymal Stem Cells (MSCs); test: Phase I study: MSC mobilization, MesenCult assay; format: in vivo, human; settings: for MSC mobilization into peripheral blood, single agent: MesenCult
Experimental: To evaluate the number of MSCs in the blood, a MesenCult assay was used at different time points following BL-8040 administration (0.75 mg/Kg FIGS. 1-2, or 1 mg/Kg FIGS. 3-4)) to healthy subjects-as described above.
White blood cells (WBCs) obtained from 100 μl blood, were plated in MesenCult medium (2 ml).
The number of MSCs colonies and MS cells were visually scored 15 days later, using a light microscope, and the frequency of MSC colonies and MSCs was calculated.

HPC colony forming cells = test: Phase I study: HPC colony forming cell mobilization; format: in vivo, human; settings: 4-8 hr post injection
Text: as §1

CXCR4 [5] = molecular target: T1, CXCR4; settings: cited from earlier work
Target sequence in this assay (P61073 whole entry, species assumed): as the sequence (P61073 whole entry) above

[6] = test system: T cells, B cells and NK cells; test: Phase I study: FACS analysis of lymphocyte mobilization; format: in vivo, human
Text: as §1

MSCs = settings: without cytokines such as PDGF, VEGF, IGF-1 or SCF; cited from earlier work

For “4F-benzoyl-Arg-Arg-Nal-Cys-Tyr-Cit-Lys-DLys-Pro-Tyr-Arg-Cit-Cys-Arg-NH2 [BL-8040]”, the “stem cell mobilization (CD34 (+) cell collection in one aphaeresis procedure)” value (CD34 (+) cells) is given as “efficient stem cell mobilizer”, the “mean CD34 count” value (HSC (CD34+ cells); 0.5 mg/kg, 4 hour post the second dose, placebo 9) is given as 38 µL⁻¹ and the “mean CD34 count” value (HSC (CD34+ cells); 0.5 mg/kg, four hours post dose, baseline 5.81/μL, placebo 8) is given as 37 µL⁻¹. For the same compound, the “mean CD34 count” value (HSC (CD34+ cells); 0.75 mg/kg, 4 hour post the second dose, placebo 9) was 46 µL⁻¹, the “mean CD34 count” value (HSC (CD34+ cells); 0.75 mg/kg, four hours post dose, baseline 5.81/μL, placebo 8) was 31 µL⁻¹ and the “mean CD34 count” value (HSC (CD34+ cells); 1 mg/kg, 4 hour post the second dose, placebo 9) was 58 µL⁻¹. The “CD34+ count in all subjects” value (HSC (CD34+ cells); 1 mg/kg, 4 hours post single administration, all subjects) was “more than 20 CD34+/μL”, the “mean CD34 count” value (HSC (CD34+ cells); 1 mg/kg, four hours post dose, baseline 5.81/μL, placebo 8) was 35 µL⁻¹ and the “mobilization of HSC (CD34+ cells)” value (HSC (CD34+ cells); across all doses tested) was “Dramatic mobilization”. For the same compound, the “duration of receptor occupancy and pharmacodynamics effect” value (CXCR4 [1]) was ≥ 24 h, the “mean WBC count” value (white blood cells (WBC)) was 2.968e+10 L⁻¹ and the “mobilization of long term repopulating cells for transplantation” value [2] was “sufficient to mobilize enough long term repopulating cells for transplantation”. For the same compound, the appearance in plasma [3] was “rapid”, the half-life [3] was “short” and the “mobilization of Mesenchymal Stem Cells (MSCs)” value ([4]; 4-8 hr post injection) was “rapid mobilization of MSCs”. For the same compound, the “MSC mobilization into peripheral blood, single agent” value ([4]; Cohort 2 (0.75 mg/Kg), 15 days culture (FIGS. 1-2), 0.75 mg/kg) was “mobilizes mesenchymal stem cells (MSCs) into peripheral blood (PB); also recorded: mobilizes MSCs into the PB”, the “MSC mobilization into peripheral blood, single agent” value ([4]; Cohort 3 (1 mg/Kg), 15 days culture (FIGS. 3-4), 1 mg/kg) was “mobilizes mesenchymal stem cells (MSCs) into peripheral blood (PB); also recorded: mobilizes MSCs into the PB” and the “mobilization of HPC colony forming cells” value (HPC colony forming cells) was “rapid mobilization”. For the same compound, the “off-rate of the receptor” value (CXCR4 [5]) was “slow off-rate”, the pKd (CXCR4 [5]; high affinity, read-out: affinity of binding to CXCR4) was 8.70 to 9.00 and the “mobilization of T cells, B cells and NK cells” value [6] was “substantial mobilization”.

In the case of `c1cc(CN2CCCNCCNCCCNCC2)ccc1CN1CCCNCCNCCCNCC1` [AMD3100], the “MSC mobilization by the agent alone” value (MSCs) is listed as “not sufficient to mobilize MSCs”.
